Assay results as given in patent publication US4568689A, “Pharmaceutical preparation for the treatment of hypertensive disease and myocardial infarction” (priority 1983, dated 1986).

Key:
[1] = system: arterial pressure of rats with spontaneous hypertension; assay: hypotensive effect, intraperitoneal, spontaneously hypertensive rats; assay type: in vivo
Description: The study of the hypotensive effect was carried out in experiments on spontaneously hypertensive male rats of the Akamoto-Aoki line aged 20-25 weeks. The prior art preparation-nifedipine was used for the purpose of comparison. The measurement of the arterial pressure was effected on the tail vein of the rats by the indirect method. The animals were divided into groups (10 in each) and trained for two weeks with the view to ensure their adaptation to the unit for the measurement of the arterial pressure. The level of the arterial pressure prior to administration of the test preparations was measured three times: two days, one day and directly prior to administration of the test preparations. The preparation was administered in the form of a 2.5% aqueous solution, nifedipine--in the form of a 2.5% suspension in Twin-80 intraperitoneally. […]

[2] = side effects or contraindications on administration
[3] = 25 mg/kg intraperitoneally, 30 minutes
[4] = 25 mg/kg intraperitoneally, 1 hour
[5] = 25 mg/kg intraperitoneally, 2 hours
[6] = 25 mg/kg intraperitoneally, 4 hours
[7] = 50 mg/kg intraperitoneal, 30 minutes
[8] = 50 mg/kg intraperitoneally, 30 minutes
[9] = 50 mg/kg intraperitoneally, 1 hour
[10] = 50 mg/kg intraperitoneally, 2 hours
[11] = 50 mg/kg intraperitoneally, 4 hours
[12] = 50 mg/kg intraperitoneally, 24 hours
[13] = 24 hours after a single-time administration

## C[N+]1(C)CC(CC(=O)[O-])C(=O)N1 (stereo not drawn) [Preparation of this invention, (1,1-dimethyl-3-oxopyrazolin-1-io-4-yl)acetate]
[1]; [3]
  Variation of arterial pressure, diastolic: -1 % of the initial
  Variation of arterial pressure, systolic: -3 % of the initial
[1]; [4]
  Variation of arterial pressure, diastolic: -7 % of the initial
  Variation of arterial pressure, systolic: -5 % of the initial
[1]; [5]
  Variation of arterial pressure, diastolic: -19 % of the initial
  Variation of arterial pressure, systolic: -3 % of the initial
[1]; [6]
  Variation of arterial pressure, diastolic: -18 % of the initial
  Variation of arterial pressure, systolic: -7 % of the initial
[1]; [7]
  reduction of diastolic pressure: 23.5%
  reduction of systolic pressure: 17.6%
[1]; [8]
  Variation of arterial pressure, diastolic: -23 % of the initial
  Variation of arterial pressure, systolic: -17 % of the initial
[1]; [9]
  Variation of arterial pressure, diastolic: -28 % of the initial
  Variation of arterial pressure, systolic: -12 % of the initial
[1]; [10]
  Variation of arterial pressure, diastolic: -26 % of the initial
  Variation of arterial pressure, systolic: -18 % of the initial
[1]; [11]
  Variation of arterial pressure, diastolic: -41 % of the initial
  Variation of arterial pressure, systolic: -21 % of the initial
[1]; [12]
  Variation of arterial pressure, diastolic: -19 % of the initial
  Variation of arterial pressure, systolic: -17 % of the initial
[1]; [13]
  reduction of diastolic pressure: 28.5%
  reduction of systolic pressure: 18.8%
[1]; see Table 1
  difference between systolic and diastolic pressures: increases the difference between systolic and diastolic pressures
[2]
  side effects or contraindications: No side effects or contraindications
